Measurements published in PMC3361532 (2012).

Target: Abl (Homo sapiens, UniProt P00519)
Experiment: in vitro kinase assay with active recombinant Abl
Format: biochemical

Chain of Abl (P00519 whole entry): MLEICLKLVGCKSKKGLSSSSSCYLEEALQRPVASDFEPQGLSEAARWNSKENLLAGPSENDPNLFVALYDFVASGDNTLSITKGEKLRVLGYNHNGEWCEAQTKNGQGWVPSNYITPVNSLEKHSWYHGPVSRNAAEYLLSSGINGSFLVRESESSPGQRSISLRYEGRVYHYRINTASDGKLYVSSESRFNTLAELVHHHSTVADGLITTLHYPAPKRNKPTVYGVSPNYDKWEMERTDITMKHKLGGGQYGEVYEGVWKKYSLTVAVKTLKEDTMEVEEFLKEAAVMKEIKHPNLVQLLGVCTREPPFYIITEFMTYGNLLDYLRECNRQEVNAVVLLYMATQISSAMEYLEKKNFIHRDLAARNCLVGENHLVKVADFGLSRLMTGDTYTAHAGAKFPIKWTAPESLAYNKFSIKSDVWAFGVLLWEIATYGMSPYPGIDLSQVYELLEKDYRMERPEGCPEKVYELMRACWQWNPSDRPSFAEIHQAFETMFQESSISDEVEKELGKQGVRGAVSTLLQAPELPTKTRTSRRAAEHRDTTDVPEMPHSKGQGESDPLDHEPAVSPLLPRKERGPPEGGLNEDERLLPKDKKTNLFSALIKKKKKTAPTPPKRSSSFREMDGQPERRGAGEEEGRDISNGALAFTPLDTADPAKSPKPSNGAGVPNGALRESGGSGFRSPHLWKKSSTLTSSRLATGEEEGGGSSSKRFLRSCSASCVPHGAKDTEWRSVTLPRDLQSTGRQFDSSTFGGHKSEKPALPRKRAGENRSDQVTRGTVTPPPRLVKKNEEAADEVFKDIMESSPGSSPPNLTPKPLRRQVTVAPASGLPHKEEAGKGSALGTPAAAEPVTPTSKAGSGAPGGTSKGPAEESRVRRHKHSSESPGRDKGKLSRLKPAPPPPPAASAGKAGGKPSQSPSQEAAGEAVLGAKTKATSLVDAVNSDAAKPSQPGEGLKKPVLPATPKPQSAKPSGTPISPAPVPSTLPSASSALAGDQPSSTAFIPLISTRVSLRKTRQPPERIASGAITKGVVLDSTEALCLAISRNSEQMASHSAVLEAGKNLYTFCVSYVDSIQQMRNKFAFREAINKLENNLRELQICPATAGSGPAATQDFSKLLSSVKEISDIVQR

IC50: 8.7 µM
Compound: O=C1Nc2ccccc2C1=C1Nc2ccccc2C1=NOCC(O)CO (stereo not shown) [E804]
